Measured values from patent publication US20260022143A1, “Cyclic Peptide Inhibitors of IL-23” (JANSSEN PHARMACEUTICA NV, priority 2022, published 2026).
Starred links: 1 amine or outer side, 2 acyl side, 3 side chain; linkers in the order of their positions; H or OH if unused. Positions of bridges follow the written chain, without caps; N, C: chain ends. Non-standard residues stand in square brackets, D forms with d. Residues, ends and D or L forms follow the SMILES beside them. Groups on a side chain read outwards from the residue. *: point of attachment. X78 = N=C(N)NCCc1cn(-c2ccc(C[C@H](N[*:1])C(=O)[*:2])cc2)nn1; Me3N+(CH2)2O(CH2)2O(CH2)2CO = C[N+](C)(C)CCOCCOCCC(=O)*; CH2CH2OCH2CH2OCH2CH2NMe3+ = C[N+](C)(C)CCOCCOCC*; Trp(7-Me) = Cc1cccc2c(C[C@H](N)C(=O)O)c[nH]c12; Pentanoyl(5-guanidino) = NC(N)=NCCCCC(=O)*; γGlu = O=C(O)[C@H](CCC(=O)[*:2])N[*:1]; 2Nal = N[C@@H](Cc1ccc2ccccc2c1)C(=O)O; 3Pal = N[C@@H](Cc1cccnc1)C(=O)O; Lys(Me) = CNCCCC[C@H](N)C(=O)O; NMeK = CN[C@@H](CCCCN)C(=O)O; Pen = CC(C)(S)[C@H](N)C(=O)O; Lauroyl = CCCCCCCCCCCC(=O)*; Nle = CCCC[C@H](N)C(=O)O; Thp = NC1(C(=O)O)CCOCC1; X3 = C[N+](C)(C)CCCCC*; AEEA = NCCOCCOCC(=O)O; Sar = CNCC(=O)O

biological target: T1, IL-23R (Homo sapiens, UniProt Q5VWK5); assay: IL23R Reporter Assay; assay type: cell-based; settings: HEK293 cells containing IL-23R, IL-12RP1 and STAT-inducible firefly luciferase reporter; 10 ng/mL IL-23 (EC90); 5 h at 37° C.; read-out: IL23R Reporter Assay
T1 construct: host or cells: HEK293
T1 sequence (Q5VWK5 24-629): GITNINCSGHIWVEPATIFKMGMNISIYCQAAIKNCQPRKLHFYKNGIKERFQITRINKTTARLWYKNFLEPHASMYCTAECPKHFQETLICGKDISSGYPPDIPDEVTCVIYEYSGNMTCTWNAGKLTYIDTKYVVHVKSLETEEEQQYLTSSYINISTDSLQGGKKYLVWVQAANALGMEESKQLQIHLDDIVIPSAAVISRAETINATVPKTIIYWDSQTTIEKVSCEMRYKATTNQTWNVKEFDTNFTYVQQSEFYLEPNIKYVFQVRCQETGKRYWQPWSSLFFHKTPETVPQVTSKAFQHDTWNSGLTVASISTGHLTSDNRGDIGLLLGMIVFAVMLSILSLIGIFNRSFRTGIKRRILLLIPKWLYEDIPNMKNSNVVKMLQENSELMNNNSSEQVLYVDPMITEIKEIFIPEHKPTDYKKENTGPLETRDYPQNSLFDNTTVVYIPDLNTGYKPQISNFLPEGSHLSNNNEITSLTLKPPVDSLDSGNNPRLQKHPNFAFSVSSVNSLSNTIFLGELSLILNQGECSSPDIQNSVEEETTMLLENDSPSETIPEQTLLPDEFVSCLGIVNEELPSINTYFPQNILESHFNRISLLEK

Going from `CCCCCCCCCCCC(=O)N[C@@H](CCC(=O)NCCOCCOCC(=O)NCCOCCOCC(=O)NCCCC[C@H](NC(=O)C1(NC(=O)[C@H](Cc2ccc3ccccc3c2)NC(=O)[C@H](Cc2ccc(OCCCCC[N+](C)(C)C)cc2)NC(=O)[C@H]2NC(=O)[C@H](CCCCNC(C)=O)NC(=O)[C@H](Cc3c[nH]c4c(C)cccc34)NC(=O)[C@H]([C@@H](C)O)NC(=O)[C@H](CC(=O)N(C)C)NC(=O)[C@@H](NC(=O)CCOCCOCC[N+](C)(C)C)C(C)(C)SSC2(C)C)CCOCC1)C(=O)N[C@@H](CC(N)=O)C(=O)N[C@@H](Cc1cccnc1)C(=O)N(C)[C@@H](CCCCNC(=O)COCCOCCNC(=O)COCCOCCNC(=O)CC[C@H](NC(=O)CCCCCCCCCCC)C(=O)O)C(N)=O)C(=O)O` [compound 353, cPEG3aCO-Pen(3)-N(N(Me)2)-T-7MeW-K(Ac)-Pen(3)-TMAPF-2Nal-THP-K(PEG2PEG2gEC12)-N-3Pya-NMeK(PEG2PEG2gEC12)-CONH2] ({Me3N+(CH2)2O(CH2)2O(CH2)2CO}-[Pen]D(NMe2)T[Trp(7-Me)]K(Ac)[Pen]Y(X3)[2Nal][Thp]K([AEEA-AEEA-γGlu-Lauroyl])N[3Pal][NMeK]([AEEA-AEEA-γGlu-Lauroyl])-NH2; disulfide 1-6) to `CCCCCCCCCCCC(=O)N[C@@H](CCC(=O)NCCOCCOCC(=O)NCCOCCOCC(=O)NCCOCCOCC(=O)NCCCC[C@H](NC(=O)C1(NC(=O)[C@H](Cc2ccc3ccccc3c2)NC(=O)[C@H](Cc2ccc(OCCCCC[N+](C)(C)C)cc2)NC(=O)[C@H]2NC(=O)[C@H](CCCCNC(C)=O)NC(=O)[C@H](Cc3c[nH]c4c(C)cccc34)NC(=O)[C@H]([C@@H](C)O)NC(=O)[C@H](CC(=O)N(C)C)NC(=O)[C@@H](NC(=O)CCOCCOCC[N+](C)(C)C)C(C)(C)SSC2(C)C)CCOCC1)C(=O)N[C@@H](CC(N)=O)C(=O)N[C@@H](Cc1cccnc1)C(=O)N(C)[C@@H](CCCCNC(=O)COCCOCCNC(=O)COCCOCCNC(=O)COCCOCCNC(=O)CC[C@H](NC(=O)CCCCCCCCCCC)C(=O)O)C(N)=O)C(=O)O` [compound 373, cPEG3aCO-Pen(3)-N(N(Me)2)-T-7MeW-K(Ac)-Pen(3)-TMAPF-2Nal-THP-K(PEG2PEG2PEG2gEC12))-N-3Pya-NMeK(PEG2PEG2PEG2gEC12)-CONH2] ({Me3N+(CH2)2O(CH2)2O(CH2)2CO}-[Pen]D(NMe2)T[Trp(7-Me)]K(Ac)[Pen]Y(X3)[2Nal][Thp]K([AEEA-AEEA-AEEA-γGlu-Lauroyl])N[3Pal][NMeK]([AEEA-AEEA-AEEA-γGlu-Lauroyl])-NH2; disulfide 1-6), the IC50 falls from 140 nM to 87 nM (1.6-fold).

Going from `CCCCCCCCCCCC(=O)N[C@@H](CCC(=O)NCCOCCOCC(=O)NCCOCCOCC(=O)NCCCC[C@@H]1NC(=O)[C@@H](NC(=O)CCOCCOCC[N+](C)(C)C)C(C)(C)SSC(C)(C)[C@@H](C(=O)N[C@@H](Cc2ccc(OCCCCC[N+](C)(C)C)cc2)C(=O)N[C@@H](Cc2ccc3ccccc3c2)C(=O)NC2(C(=O)N[C@@H](CCCCN(C)C(C)=O)C(=O)N[C@@H](CC(N)=O)C(=O)N[C@@H](Cc3cccnc3)C(=O)N(C)CC(=O)N(C)C)CCOCC2)NC(=O)[C@H](CCCCN(C)C(C)=O)NC(=O)[C@H](Cc2c[nH]c3c(C)cccc23)NC(=O)[C@H]([C@@H](C)O)NC1=O)C(=O)O` [compound 387, cPEG3aCO-Pen(3)-K(PEG2PEG2gEC12)-T-7MeW-K(NMeAc)-Pen(3)-TMAPF-2Nal-THP-K(NMeAc)-N-3Pya-Sar-CON(Me)2] ({Me3N+(CH2)2O(CH2)2O(CH2)2CO}-[Pen]K([AEEA-AEEA-γGlu-Lauroyl])T[Trp(7-Me)][Lys(Me)](Ac)[Pen]Y(X3)[2Nal][Thp][Lys(Me)](Ac)N[3Pal][Sar]-NMe2; disulfide 1-6) to `CCCC[C@H](NC(=O)C1(NC(=O)[C@H](Cc2ccc3ccccc3c2)NC(=O)[C@H](Cc2ccc(OCCOCCOCC[N+](C)(C)C)cc2)NC(=O)[C@H]2NC(=O)[C@H](CCCCN(C)C(C)=O)NC(=O)[C@H](Cc3c[nH]c4c(C)cccc34)NC(=O)[C@H]([C@@H](C)O)NC(=O)[C@H](CC(=O)N(C)C)NC(=O)[C@@H](NC(=O)CCOCCOCC[N+](C)(C)C)C(C)(C)SSC2(C)C)CCOCC1)C(=O)N[C@@H](CC(N)=O)C(=O)N[C@@H](Cc1cccnc1)C(=O)N(C)CC(=O)N(C)C` [compound 520, cPEG3aCO-Pen(3)-N(N(Me)2)-T-7MeW-K(NMeAc)-Pen(3)-APEG3F-2Nal-THP-Nle-N-3Pya-Sar-CON(Me)2] ({Me3N+(CH2)2O(CH2)2O(CH2)2CO}-[Pen]D(NMe2)T[Trp(7-Me)][Lys(Me)](Ac)[Pen]Y(CH2CH2OCH2CH2OCH2CH2NMe3+)[2Nal][Thp][Nle]N[3Pal][Sar]-NMe2; disulfide 1-6), the IC50 falls from 12 nM to 1.4 nM (8.6-fold). The second is the more potent here.

Going from `CC(=O)N(C)CCCC[C@@H]1NC(=O)[C@H](Cc2c[nH]c3c(C)cccc23)NC(=O)[C@H]([C@@H](C)O)NC(=O)[C@H](CC(=O)N(C)C)NC(=O)[C@@H](NC(=O)CCCCNC(=N)N)C(C)(C)SSC(C)(C)[C@@H](C(=O)N[C@@H](Cc2ccc(OCCCCC[N+](C)(C)C)cc2)C(=O)N[C@@H](Cc2ccc3ccccc3c2)C(=O)NC2(C(=O)N[C@@H](CCCCN(C)C(C)=O)C(=O)N[C@@H](CC(N)=O)C(=O)N[C@@H](Cc3cccnc3)C(=O)N(C)CC(=O)N(C)C)CCOCC2)NC1=O` [compound 403, 4cpgCO-Pen(3)-N(N(Me)2)-T-7MeW-K(NMeAc)-Pen(3)-TMAPF-2Nal-THP-K(NMeAc)-N-3Pya-Sar-CON(Me)2] ({Pentanoyl(5-guanidino)}-[Pen]D(NMe2)T[Trp(7-Me)][Lys(Me)](Ac)[Pen]Y(X3)[2Nal][Thp][Lys(Me)](Ac)N[3Pal][Sar]-NMe2; disulfide 1-6) to `CC(=O)NCCCC[C@@H]1NC(=O)[C@H](Cc2c[nH]c3c(C)cccc23)NC(=O)[C@H]([C@@H](C)O)NC(=O)[C@H](CC(N)=O)NC(=O)[C@@H](NC(=O)CCOCCOCC[N+](C)(C)C)C(C)(C)SSC(C)(C)[C@@H](C(=O)N[C@@H](Cc2ccc(-n3cc(CCNC(=N)N)nn3)cc2)C(=O)N[C@@H](Cc2ccc3ccccc3c2)C(=O)NC2(C(=O)N[C@@H](CCCCNC(C)=O)C(=O)N[C@@H](CC(N)=O)C(=O)N[C@@H](Cc3cccnc3)C(=O)N(C)CC(N)=O)CCOCC2)NC1=O` [compound 521, cPEG3aCO-Pen(3)-N-T-7MeW-K(Ac)-Pen(3)-F(4TzlG2)-2Nal-THP-K(Ac)-N-3Pya-Sar-CONH2] ({Me3N+(CH2)2O(CH2)2O(CH2)2CO}-[Pen]NT[Trp(7-Me)]K(Ac)[Pen][X78][2Nal][Thp]K(Ac)N[3Pal][Sar]-NH2; disulfide 1-6), the IC50 falls from 4.5 nM to 1.4 nM (3.2-fold). The second is the more potent here.

Work on `CC(=O)NCCCC[C@@H]1NC(=O)[C@H](Cc2c[nH]c3c(-c4cccc(NC(C)=O)c4)cccc23)NC(=O)[C@H]([C@@H](C)O)NC(=O)[C@H](CC(N)=O)NC(=O)[C@@H](NC(=O)CCOCCOCC[N+](C)(C)C)C(C)(C)SSC(C)(C)[C@@H](C(=O)N[C@@H](Cc2ccc(OCCNC(=N)N)cc2)C(=O)N[C@@H](Cc2ccc3ccccc3c2)C(=O)NC2(C(=O)N[C@@H](CCCCN(C)C(C)=O)C(=O)N[C@@H](CC(N)=O)C(=O)N[C@@H](Cc3cncc(C)c3)C(=O)N(C)CC(N)=O)CCOCC2)NC1=O` [compound 481, cPEG3aCO-Pen(3)-N-T-7(3NAcPh)W-K(Ac)-Pen(3)-AEF(G)-2Nal-THP-K(NMeAc)-N-5MePyridinAla-Sar-CONH2] yielded an IC50 of 3.5 nM.
